Test results as given in PubChem BioAssay (NCI).
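Exposure lasted 48 hours, with cells grown in 96-well plates and compounds tested at five concentrations. The concentration for full growth arrest is given as TGI.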

Key:
Assay in all cases: inhibition of tumour cell growth, NCI panel, 48 h
U251 CNS = system: U251 CNS
LOX IMVI melanoma = system: LOX IMVI melanoma
T-47D breast = system: T-47D breast
OVCAR-4 ovarian = system: OVCAR-4 ovarian
BT-549 breast = system: BT-549 breast
SF-295 CNS = system: SF-295 CNS
MALME-3M melanoma = system: MALME-3M melanoma
SK-MEL-2 melanoma = system: SK-MEL-2 melanoma
HCC-2998 colon = system: HCC-2998 colon
ACHN renal = system: ACHN renal
NCI-H226 lung = system: NCI-H226 lung
A498 renal = system: A498 renal
HCT-15 colon = system: HCT-15 colon

Compound | TGI (U251 CNS) | TGI (LOX IMVI melanoma) | TGI (T-47D breast) | TGI (OVCAR-4 ovarian) | TGI (BT-549 breast) | TGI (SF-295 CNS) | TGI (MALME-3M melanoma) | TGI (SK-MEL-2 melanoma) | TGI (HCC-2998 colon) | TGI (ACHN renal) | TGI (NCI-H226 lung) | TGI (A498 renal) | TGI (HCT-15 colon)
CCOC(=O)C(Cc1ccc(O)cc1)Nc1nc(=O)c2c(=O)oc(Cl)cc2o1 (stereo unspecified) | 21.9 µM | 27.9 µM | 25.7 µM | 25.9 µM | 14.1 µM | 29.8 µM | 16.5 µM | 34.3 µM | 17.6 µM | 24.7 µM | 42.5 µM | 35.3 µM | 37.3 µM
Cc1c2ccc3ccccc3c2c[n+]2ccccc12 | 15.6 µM | > 78.4 µM | 5.09 µM | 38.8 µM | 14.3 µM | 24.8 µM | 3.77 µM | 31 µM | 17.7 µM | > 100 µM | 20.1 µM | > 94.4 µM | > 100 µM
O=[N+]([O-])c1c(F)c(F)c2c(c1F)N(CCCCCl)c1ccccc1S2 | 25.3 µM | 3.06 µM | 27.7 µM | 21.2 µM | 28 µM | 31.1 µM | 31.4 µM | 8.18 µM | 8.48 µM | 30.4 µM | 33.1 µM | 21.1 µM | 3.31 µM
CN(C)CCCNc1ccc2ncn3c4ccc(O)cc4c(=O)c1c23 | 4.6 µM | 3.13 µM | 30.5 µM | 8.01 µM | 31.9 µM | 15.6 µM | 16 µM | 19.6 µM | 18.1 µM | 4.04 µM | 3.59 µM | 7.6 µM | 16.8 µM
CCOC(=O)c1c(OCC)[nH]c(=O)c(C(c2cccs2)c2c(O)c(C(=O)OCC)c(OCC)[nH]c2=O)c1O | 30.3 µM | 30.7 µM | 17 µM | 76 µM | 22.7 µM | 49.6 µM | 25.6 µM | 29.9 µM | 35 µM | 25.4 µM | 27.4 µM | 23.5 µM | 37.5 µM
CCCCCCCCCCCC(=O)OC[C@@H](C[As](=O)(O)O)OC(=O)CCCCCCCCCCC | 4.42 µM | 18.1 µM | 37.7 µM | 29.1 µM | 9.91 µM | 27.1 µM | 8.84 µM | 7.48 µM | 20.1 µM | 10.4 µM | 34.1 µM | 24.3 µM | 24.1 µM
O=C(Cn1c2ccc(Br)cc2c2nc3ccccc3nc21)NNC(=S)NC1CCCCC1 | 28.3 µM | 24.9 µM | 45.8 µM | 41.2 µM | 42.8 µM | 25.7 µM | 39.5 µM | 40.4 µM | 34.6 µM | 29.6 µM | 33.6 µM | 35.1 µM | 25.4 µM
